Experimental findings from patent US9708331B2, “Metabotrophic glutamate receptor 5 modulators and methods of use thereof” (SUNOVION PHARMACEUTICALS INC., priority 2011, dated 2017) are described below.

What is called EC50 is the midpoint of the concentration-response curve. A low value points to an effect from little substance.

mGluR5, sequence (P41594 21-1212): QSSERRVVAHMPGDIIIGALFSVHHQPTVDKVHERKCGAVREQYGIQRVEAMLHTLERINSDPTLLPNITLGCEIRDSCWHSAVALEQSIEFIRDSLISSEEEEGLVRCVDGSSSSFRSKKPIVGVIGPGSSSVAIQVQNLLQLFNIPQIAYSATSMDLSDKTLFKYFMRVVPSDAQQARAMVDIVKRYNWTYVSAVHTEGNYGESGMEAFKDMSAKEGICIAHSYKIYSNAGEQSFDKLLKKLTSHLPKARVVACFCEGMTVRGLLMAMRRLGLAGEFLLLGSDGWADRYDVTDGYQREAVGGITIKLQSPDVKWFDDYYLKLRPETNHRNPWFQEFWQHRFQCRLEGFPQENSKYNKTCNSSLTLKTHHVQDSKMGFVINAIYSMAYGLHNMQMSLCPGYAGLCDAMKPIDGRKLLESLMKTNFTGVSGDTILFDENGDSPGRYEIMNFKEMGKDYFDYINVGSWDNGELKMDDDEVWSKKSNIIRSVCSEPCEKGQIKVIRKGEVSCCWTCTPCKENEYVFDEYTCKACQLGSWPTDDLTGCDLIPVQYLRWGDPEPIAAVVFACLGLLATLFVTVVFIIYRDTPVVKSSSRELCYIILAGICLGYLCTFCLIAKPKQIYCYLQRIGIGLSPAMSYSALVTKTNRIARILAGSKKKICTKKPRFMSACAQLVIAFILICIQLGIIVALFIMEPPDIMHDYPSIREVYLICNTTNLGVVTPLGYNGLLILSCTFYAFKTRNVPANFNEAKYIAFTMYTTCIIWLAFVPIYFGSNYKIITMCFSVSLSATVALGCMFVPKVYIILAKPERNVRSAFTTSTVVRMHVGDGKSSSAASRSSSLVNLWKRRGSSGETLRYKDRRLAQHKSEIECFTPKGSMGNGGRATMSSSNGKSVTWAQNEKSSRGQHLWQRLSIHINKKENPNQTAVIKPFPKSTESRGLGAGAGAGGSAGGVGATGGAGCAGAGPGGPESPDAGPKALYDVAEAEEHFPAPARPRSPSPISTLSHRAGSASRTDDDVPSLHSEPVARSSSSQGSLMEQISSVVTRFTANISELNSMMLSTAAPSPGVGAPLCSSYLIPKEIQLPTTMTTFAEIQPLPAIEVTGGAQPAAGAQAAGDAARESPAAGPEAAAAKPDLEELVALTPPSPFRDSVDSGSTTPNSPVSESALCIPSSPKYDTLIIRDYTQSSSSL

This test concerns the target mGluR5 (Homo sapiens, UniProt P41594). Kind of test: mGluR5 PAM EC50 (positive allosteric modulator potency). The format is cell-based.
`CC1(C)CCc2nc3cc(C#Cc4cc(C#N)ccn4)ccc3c(=O)n2C1` [Example 2.25b, 2-((8,8-dimethyl-11-oxo-7,8,9,11-tetrahydro-6H-pyrido[2,1-b]quinazolin-3-yl)ethynyl)isonicotinonitrile]: the EC50 was < 10 nM.
As for `CC1(C)CCC2Cn3c(nc4cc(C#Cc5ccccn5)ccc4c3=O)CN21` (stereo not drawn) [Example 2.26, 3,3-dimethyl-8-(pyridin-2-ylethynyl)-2,3,13,13a-tetrahydro-1H-pyrrolo[1′,2′:4,5] pyrazino[2,1-b]quinazolin-11(5H)-one], the figure is 100 to 300 nM; as for `CC1(C)CCn2c(nc3c(F)c(C#Cc4ccccn4)ccc3c2=O)C1` [Example 2.30a, 4-fluoro-7,7-dimethyl-3-(pyridin-2-ylethynyl)-8,9-dihydro-6H-pyrido[2,1-b]quinazolin-11(7H)-one], 10 to 30 nM; as for `CC1(C)CCn2c(nc3cc(C#Cc4ccccn4)c(F)cc3c2=O)C1` [Example 2.31a, 2-fluoro-7,7-dimethyl-3-(pyridin-2-ylethynyl)-8,9-dihydro-6H-pyrido[2,1-b]quinazolin-11(7H)-one], 30 to 100 nM.
Under `C=CC1(F)CCc2nc3cc(C#Cc4ccccn4)ccc3c(=O)n2C1` (stereo not drawn) [Example 2.38, 8-fluoro-3-(pyridin-2-ylethynyl)-8-vinyl-8,9-dihydro-6H-pyrido[2,1-b]quinazolin-11(7H)-one] stands 10 to 30 nM; under `CC1(C)CCc2nc3cc(C#Cc4ccc(C#N)cn4)ccc3c(=O)n2C1` [Example 2.39, 6-((8,8-dimethyl-11-oxo-7,8,9,11-tetrahydro-6H-pyrido[2,1-b]quinazolin-3-yl)ethynyl)nicotinonitrile], 10 to 30 nM.
As for `COc1ccc(C#Cc2ccc3c(=O)n4c(nc3c2)CCC(C)(C)C4)nc1` [Example 2.40, 3-((5-methoxypyridin-2-yl)ethynyl)-8,8-dimethyl-8,9-dihydro-6H-pyrido[2,1-b]quinazolin-11(7H)-one], the figure is 30 to 100 nM; as for `Cc1cc(C#Cc2ccc3c(=O)n4c(nc3c2)CCC(C)(C)C4)ccn1` [Example 2.46, 8,8-dimethyl-3-((2-methylpyridin-4-yl)ethynyl)-8,9-dihydro-6H-pyrido[2,1-d]quinazolin-11(7H)-one], 10 to 30 nM.
In the case of `Cc1cnc(C#Cc2ccc3c(=O)n4c(nc3c2)CCC(C)(C)C4)s1` [Example 2.50, 8,8-dimethyl-3-((5-methylthiazol-2-yl)ethynyl)-8,9-dihydro-6H-pyrido[2,1-b]quinazolin-11(7H)-one], the EC50 is < 10 nM.
As for `Cc1cc(C#Cc2ccc3c(=O)n4c(nc3c2)CCC(C)(C)C4)sn1` [Example 2.51, 8,8-dimethyl-3-((3-methylisothiazol-5-yl)ethynyl)-8,9-dihydro-6H-pyrido[2,1-b]quinazolin-11(7H)-one], the figure is < 10 nM; as for `CC1(C)CCc2nc3cc(C#Cc4ncc(F)cn4)ccc3c(=O)n2C1` [Example 2.54, 3-((5-fluoropyrimidin-2-yl)ethynyl)-8,8-dimethyl-8,9-dihydro-6H-pyrido[2,1-b]quinazolin-11(7H)-one], 30 to 100 nM; as for `CC1(C)CCc2nc3cc(C#Cc4ccccc4F)ccc3c(=O)n2C1` [Example 2.73, 3-((2-fluorophenyl)ethynyl)-8,8-dimethyl-8,9-dihydro-6H-pyrido[2,1-b]quinazolin-11(7H)-one], 10 to 30 nM.
Under `CC1(C)CCc2nc3cc(C#Cc4ccc(F)cc4)ccc3c(=O)n2C1` [Example 2.75, 3-((4-fluorophenyl)ethynyl)-8,8-dimethyl-8,9-dihydro-6H-pyrido[2,1-b]quinazolin-11(7H)-one] stands 10 to 30 nM; under `CC1(C)CCc2nc3cc(C#Cc4ncccc4F)ccc3c(=O)n2C1` [Example 2.86, 3-((3-fluoropyridin-2-yl)ethynyl)-8,8-dimethyl-8,9-dihydro-6H-pyrido[2,1-b]quinazolin-11(7H)-one], < 10 nM.
`CC1(C)CCc2nc3cc(C#Cc4cccnc4F)ccc3c(=O)n2C1` [Example 2.87, 3-((2-fluoropyridin-3-yl)ethynyl)-8,8-dimethyl-8,9-dihydro-6H-pyrido[2,1-b]quinazolin-11(7H)-one]: the EC50 was < 10 nM.
Under `CC1(C)CCc2nc3cc(C#Cc4ccc(F)nc4)ccc3c(=O)n2C1` [Example 2.88, 3-((6-fluoropyridin-3-yl)ethynyl)-8,8-dimethyl-8,9-dihydro-6H-pyrido[2,1-b]quinazolin-11(7H)-one] stands < 10 nM.
As for `CC1(C)CCc2nc3cc(C#Cc4cncc(F)c4)ccc3c(=O)n2C1` [Example 2.89, 3-((5-fluoropyridin-3-yl)ethynyl)-8,8-dimethyl-8,9-dihydro-6H-pyrido[2,1-b]quinazolin-11(7H)-one], the figure is < 10 nM; as for `CC1(C)CCc2nc3cc(C#Cc4cnccc4F)ccc3c(=O)n2C1` [Example 2.90, 3-((4-fluoropyridin-3-yl)ethynyl)-8,8-dimethyl-8,9-dihydro-6H-pyrido[2,1-b]quinazolin-11(7H)-one], < 10 nM; as for `CC1(C)CCc2nc3cc(C#Cc4ccncc4F)ccc3c(=O)n2C1` [Example 2.91, 3-((3-fluoropyridin-4-yl)ethynyl)-8,8-dimethyl-8,9-dihydro-6H-pyrido[2,1-b]quinazolin-11(7H)-one], < 10 nM.
Regarding `CC1(C)CCc2nc3cc(C#Cc4ccnc(F)c4)ccc3c(=O)n2C1` [Example 2.92, 3-((2-fluoropyridin-4-yl)ethynyl)-8,8-dimethyl-8,9-dihydro-6H-pyrido[2,1-b]quinazolin-11(7H)-one], the 50% effective concentration (EC50) was < 10 nM.
Under `CC1(CO)CCc2nc3cc(C#Cc4ccccn4)ccc3c(=O)n2C1` (stereo not drawn) [Example 2.99, 8-(hydroxymethyl)-8-methyl-3-(pyridin-2-ylethynyl)-8,9-dihydro-6H-pyrido[2,1-b]quinazolin-11(7H)-one] stands 30 to 100 nM; under `O=c1c2ccc(C#Cc3ccccn3)cc2nc2n1CCC1(CO)CC21` (stereo not drawn) [Example 2.103, 1a-(hydroxymethyl)-8-(pyridin-2-ylethynyl)-1,2,3,10b-tetrahydrocyclopropa[3,4]pyrido [2,1-b]quinazolin-5(1aH)-one], 100 to 300 nM.
Under `O=c1c2ccc(C#Cc3ccccn3)cc2nc2n1C[C@H]1CCCN1C2` [Example 2.104, (R)-8-(pyridin-2-ylethynyl)-2,3,13,13a-tetrahydro-1H-pyrrolo[1′,7′:4,5]pyrazino[2,1-b]quinazolin-11(5H)-one] stands 30 to 100 nM.
Under `N#Cc1ccnc(C#Cc2ccc3c(=O)n4c(nc3c2)CCCCC4)c1` [Example 3.5, 2-((12-oxo-6,7,8,9,10,12-hexahydroazepino[2,1-b]quinazolin-3-yl)ethynyl)isonicotinonitrile] stands 10 to 30 nM; under `O=c1c2ccc(C#Cc3ccccn3)cc2nc2n1CCN1CCC2C1` (stereo not drawn) [Example 3.6, 9-(pyridin-2-ylethynyl)-1,2,5,6-tetrahydro-3,6-methano[1,4]diazocino[8,1-b]quinazolin-12(4H)-one], 100 to 300 nM; under `O=c1c2ncc(C#Cc3ccccn3)cc2nc2n1CCCC(C(F)(F)F)C2` (stereo not drawn) [Example 3.8, 3-(pyridin-2-ylethynyl)-7-(trifluoromethyl)-7,8,9,10-tetrahydropyrido[3′,2′:4,5]pyrimido [1,2-a]azepin-12(6H)-one], 30 to 100 nM.
As for `O=c1c2ncc(C#Cc3ccccn3)cc2nc2n1CCC(F)(F)CC2` [Example 3.16, 8,8-difluoro-3-(pyridin-2-ylethynyl)-7,8,9,10-tetrahydropyrido[3′,2′:4,5]pyrimido [1,2-a]azepin-12(6H)-one], the EC50 lay within 100 to 300 nM.
On to `CCC1(F)CCc2nc3cc(C#Cc4ccccn4)ccc3c(=O)n2CC1` (stereo not drawn) [Example 3.17, 8-ethyl-8-fluoro-3-(pyridin-2-ylethynyl)-7,8,9,10-tetrahydroazepino[2,1-b]quinazolin-12(6H)-one], for which the 50% effective concentration (EC50) lay in the range of 10 to 30 nM.
As for `CCC1(F)CCc2nc3cc(C#Cc4ccccn4)cnc3c(=O)n2CC1` (stereo not drawn) [Example 3.18, 8-ethyl-8-fluoro-3-(pyridin-2-ylethynyl)-7,8,9,10-tetrahydropyrido[3′,2′:4,5]pyrimido [1,2-a]azepin-12(6H)-one], the figure is 30 to 100 nM; as for `CC1CCc2nc3cc(C#Cc4cc(C#N)ccn4)ccc3c(=O)n2CC1` (stereo not drawn) [Example 3.19, 2-((8-methyl-12-oxo-6,7,8,9,10,12-hexahydroazepino[2,1-b]quinazolin-3-yl)ethynyl)isonicotinonitrile], 30 to 100 nM.
On to `Cc1cc(C#Cc2ccccn2)cc2nc3n(c(=O)c12)CCC(C)CC3` (stereo not drawn) [Example 3.22, 1,8-dimethyl-3-(pyridin-2-ylethynyl)-7,8,9,10-tetrahydroazepino[2,1-b]quinazolin-12(6H)-one], for which the EC50 fell in the range of 30 to 100 nM.
Under `COC1CCc2nc3cc(C#Cc4ccccn4)cnc3c(=O)n2CC1` (stereo not drawn) [Example 3.23, 8-methoxy-3-(pyridin-2-ylethynyl)-7,8,9,10-tetrahydropyrido[3′,2′:4,5]pyrimido [1,2-a]azepin-19(6H)-one] stands 100 to 300 nM.
As for `CC1(F)CCCc2nc3cc(C#Cc4ccccn4)cnc3c(=O)n2C1` (stereo not drawn) [Example 3.25, 9-fluoro-9-methyl-3-(pyridin-2-ylethynyl)-7,8,9,10-tetrahydropyrido[3′,2′:4,5]pyrimido [1,2-a]azepin-12(6H)-one], the figure is 100 to 300 nM.
Under `O=c1c2ncc(C#Cc3ccccn3)cc2nc2n1CC(F)(F)CCC2` [Example 3.26, 9,9-difluoro-3-(pyridin-2-ylethynyl)-7,8,9,10-tetrahydropyrido[3′,2′:4,5]pyrimido [1,2-a]azepin-12(6H)-one] stands 30 to 100 nM; under `O=c1c2ccc(C#Cc3ccccn3)cc2nc2n1CC1CC(F)(F)CN1CC2` (stereo not drawn) [Example 3.33a, 2,2-difluoro-9-(pyridin-2-ylethynyl)-2,3,5,6,14,14a-hexahydropyrrolo[2′,1′:3,4][1,4] diazepino[7,1-b]quinazolin-12(1H)-one], 30 to 100 nM.
`CC12CCCN1CCc1nc3cc(C#Cc4ccccn4)ccc3c(=O)n1C2` (stereo not drawn) [Example 3.34, 14a-methyl-9-(pyridin-2-ylethynyl)-2,3,5,6,14,14a-hexahydropyrrolo[2′,1′:3,4][1,4] diazepino[7,1-b]quinazolin-12(1H)-one] returned an EC50 of 300 to 1000 nM.
